The target of assay [1] is Serine/threonine-protein kinase WNK1 (Homo sapiens) (UniProt Q9H4A3). Nature of the assay: Inhibition of WNK1 (unknown origin) assessed as residual activity at 100 nM by KINOMEscan analysis relative to control.
In assay [2] the target is Homeodomain-interacting protein kinase 1 (Homo sapiens) (UniProt Q86Z02). As to the kind of experiment: Inhibition of HIPK1 (unknown origin) assessed as residual activity at 100 nM by KINOMEscan analysis relative to control.
Assay [3] deals with T1, Dual specificity mitogen-activated protein kinase kinase 5 (Homo sapiens) (UniProt Q13163).
T1 sequence (whole entry): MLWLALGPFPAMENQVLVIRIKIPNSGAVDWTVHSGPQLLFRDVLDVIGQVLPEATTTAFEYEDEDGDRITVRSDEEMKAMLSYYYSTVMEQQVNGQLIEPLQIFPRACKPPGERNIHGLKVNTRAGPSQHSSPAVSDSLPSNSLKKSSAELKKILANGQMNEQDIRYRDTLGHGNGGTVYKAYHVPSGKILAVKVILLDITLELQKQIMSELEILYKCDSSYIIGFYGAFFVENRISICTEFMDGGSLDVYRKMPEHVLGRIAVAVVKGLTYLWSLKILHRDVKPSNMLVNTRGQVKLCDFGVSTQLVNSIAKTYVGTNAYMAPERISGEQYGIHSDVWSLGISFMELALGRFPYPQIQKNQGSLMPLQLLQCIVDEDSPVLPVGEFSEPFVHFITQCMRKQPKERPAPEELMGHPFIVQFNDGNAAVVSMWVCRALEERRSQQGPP
Nature of the assay: Inhibition of MEK5 (unknown origin) assessed as residual activity at 100 nM by KINOMEscan analysis relative to control.

The target of assay [4] is Platelet-derived growth factor receptor beta (Homo sapiens) (UniProt P09619). As to the kind of experiment: Inhibition of PDGFRB (unknown origin) assessed as residual activity at 100 nM by KINOMEscan analysis relative to control.
Chain of Platelet-derived growth factor receptor beta (Homo sapiens) (P09619 whole entry): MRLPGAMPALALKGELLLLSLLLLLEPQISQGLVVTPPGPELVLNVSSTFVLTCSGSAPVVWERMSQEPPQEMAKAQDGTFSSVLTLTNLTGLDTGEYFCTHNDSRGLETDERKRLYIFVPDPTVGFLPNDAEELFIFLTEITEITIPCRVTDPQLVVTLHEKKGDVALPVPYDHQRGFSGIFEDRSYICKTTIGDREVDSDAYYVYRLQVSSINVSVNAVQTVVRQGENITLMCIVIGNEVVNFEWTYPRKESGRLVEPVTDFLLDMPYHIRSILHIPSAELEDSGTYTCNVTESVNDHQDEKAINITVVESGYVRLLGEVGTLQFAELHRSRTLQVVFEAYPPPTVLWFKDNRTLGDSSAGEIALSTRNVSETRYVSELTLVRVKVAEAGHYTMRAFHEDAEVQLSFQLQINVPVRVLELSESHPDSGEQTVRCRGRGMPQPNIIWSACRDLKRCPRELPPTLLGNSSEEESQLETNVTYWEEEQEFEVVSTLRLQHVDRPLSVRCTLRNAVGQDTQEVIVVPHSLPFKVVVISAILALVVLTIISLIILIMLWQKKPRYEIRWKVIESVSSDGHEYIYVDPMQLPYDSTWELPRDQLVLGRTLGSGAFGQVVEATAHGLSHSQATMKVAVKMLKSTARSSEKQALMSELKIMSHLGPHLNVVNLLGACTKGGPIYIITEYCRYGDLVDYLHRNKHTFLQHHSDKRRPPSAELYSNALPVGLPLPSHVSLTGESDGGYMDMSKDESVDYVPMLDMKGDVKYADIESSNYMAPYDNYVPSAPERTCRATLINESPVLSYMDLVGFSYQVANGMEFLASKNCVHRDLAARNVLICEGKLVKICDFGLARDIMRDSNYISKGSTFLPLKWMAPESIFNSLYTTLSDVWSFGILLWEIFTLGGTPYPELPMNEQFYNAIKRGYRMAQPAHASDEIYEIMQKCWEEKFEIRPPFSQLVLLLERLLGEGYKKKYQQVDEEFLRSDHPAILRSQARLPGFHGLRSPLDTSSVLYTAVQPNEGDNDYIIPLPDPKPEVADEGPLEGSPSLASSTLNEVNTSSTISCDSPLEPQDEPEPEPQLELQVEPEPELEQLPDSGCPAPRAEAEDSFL
In assay [5] the target is cAMP-dependent protein kinase catalytic subunit beta (Homo sapiens) (UniProt P22694). Nature of the assay: Inhibition of PKAC-beta (unknown origin) assessed as residual activity at 100 nM by KINOMEscan analysis relative to control.
Assay [6] concerns the target T2, Phosphatidylinositol 4,5-bisphosphate 3-kinase catalytic subunit delta isoform (Homo sapiens) (UniProt O00329).
T2 sequence (whole entry): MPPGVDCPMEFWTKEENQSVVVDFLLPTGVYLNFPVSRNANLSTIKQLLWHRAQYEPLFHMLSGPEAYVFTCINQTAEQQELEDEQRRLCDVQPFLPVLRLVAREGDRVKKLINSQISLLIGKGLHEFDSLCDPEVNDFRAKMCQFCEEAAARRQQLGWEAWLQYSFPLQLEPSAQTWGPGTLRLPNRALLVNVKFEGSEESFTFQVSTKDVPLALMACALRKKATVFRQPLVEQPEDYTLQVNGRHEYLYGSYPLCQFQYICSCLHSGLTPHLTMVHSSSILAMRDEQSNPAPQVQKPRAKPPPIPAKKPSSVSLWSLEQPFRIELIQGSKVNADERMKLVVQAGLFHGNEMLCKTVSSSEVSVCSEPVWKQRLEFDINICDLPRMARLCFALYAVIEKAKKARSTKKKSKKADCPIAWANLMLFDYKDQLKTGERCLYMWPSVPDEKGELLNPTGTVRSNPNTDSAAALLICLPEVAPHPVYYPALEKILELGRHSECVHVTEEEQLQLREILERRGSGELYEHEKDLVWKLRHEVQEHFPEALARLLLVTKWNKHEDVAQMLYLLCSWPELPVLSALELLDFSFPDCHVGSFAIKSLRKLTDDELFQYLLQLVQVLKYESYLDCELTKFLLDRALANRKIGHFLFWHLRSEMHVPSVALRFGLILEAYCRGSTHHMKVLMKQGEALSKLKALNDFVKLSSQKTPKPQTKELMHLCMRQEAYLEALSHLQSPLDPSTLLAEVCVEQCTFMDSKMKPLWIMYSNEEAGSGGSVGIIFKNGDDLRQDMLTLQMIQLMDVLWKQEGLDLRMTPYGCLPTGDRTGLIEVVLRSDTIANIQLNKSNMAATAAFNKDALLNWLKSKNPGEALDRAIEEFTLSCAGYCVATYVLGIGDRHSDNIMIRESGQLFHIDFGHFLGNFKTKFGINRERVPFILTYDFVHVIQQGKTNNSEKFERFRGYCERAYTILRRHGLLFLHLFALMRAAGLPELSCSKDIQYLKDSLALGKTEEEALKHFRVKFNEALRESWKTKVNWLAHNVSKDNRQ
As to the kind of experiment: Inhibition of PIK3CD (unknown origin) assessed as residual activity at 100 nM by KINOMEscan analysis relative to control.

Assay [7] has as its target Cyclin-dependent kinase 15 (Homo sapiens) (UniProt Q96Q40). As to the kind of experiment: Inhibition of PFTAIRE2 (unknown origin) assessed as residual activity at 100 nM by KINOMEscan analysis relative to control.
Assay [8] has as its system Receptor-type tyrosine-protein kinase FLT3 (Homo sapiens), P36888 [N841I]. As to the kind of experiment: Inhibition of FLT3 N841I mutant (unknown origin) assessed as residual activity at 100 nM by KINOMEscan analysis relative to control.
Assay [9] concerns the target Tyrosine-protein kinase Fes/Fps (Homo sapiens) (UniProt P07332). Nature of the assay: Inhibition of FES (unknown origin) assessed as residual activity at 100 nM by KINOMEscan analysis relative to control.
In assay [10] the target is Mast/stem cell growth factor receptor Kit (Homo sapiens) (UniProt P10721). As to the kind of experiment: Inhibition of KIT (unknown origin) assessed as residual activity at 100 nM by KINOMEscan analysis relative to control.
Assay [11] has as its target T3, TGF-beta receptor type-1 (Homo sapiens) (UniProt P36897).
T3 sequence (whole entry): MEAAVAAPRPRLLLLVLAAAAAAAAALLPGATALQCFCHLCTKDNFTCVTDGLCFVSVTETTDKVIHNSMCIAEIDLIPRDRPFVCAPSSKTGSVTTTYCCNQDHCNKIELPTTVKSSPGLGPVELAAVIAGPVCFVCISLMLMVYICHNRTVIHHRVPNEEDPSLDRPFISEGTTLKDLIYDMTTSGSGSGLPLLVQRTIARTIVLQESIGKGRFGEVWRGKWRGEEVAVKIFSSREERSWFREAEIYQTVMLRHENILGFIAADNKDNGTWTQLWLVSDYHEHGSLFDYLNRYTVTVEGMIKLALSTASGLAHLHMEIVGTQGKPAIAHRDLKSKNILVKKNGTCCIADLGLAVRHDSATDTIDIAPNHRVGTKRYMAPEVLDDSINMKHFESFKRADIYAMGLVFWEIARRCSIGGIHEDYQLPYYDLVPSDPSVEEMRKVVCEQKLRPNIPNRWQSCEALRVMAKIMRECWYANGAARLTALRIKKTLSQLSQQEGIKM
Nature of the assay: Inhibition of TGFBR1 (unknown origin) assessed as residual activity at 100 nM by KINOMEscan analysis relative to control.

In ChEMBL document CHEMBL5678818, “Discovery of potent SOS1 inhibitors that block RAS activation via disruption of the RAS-SOS1 interaction” (Proc Natl Acad Sci U S A, 2019) one finds Activity data, which are given here for one molecule.

Chain of Serine/threonine-protein kinase WNK1 (Homo sapiens) (Q9H4A3 whole entry, looked up): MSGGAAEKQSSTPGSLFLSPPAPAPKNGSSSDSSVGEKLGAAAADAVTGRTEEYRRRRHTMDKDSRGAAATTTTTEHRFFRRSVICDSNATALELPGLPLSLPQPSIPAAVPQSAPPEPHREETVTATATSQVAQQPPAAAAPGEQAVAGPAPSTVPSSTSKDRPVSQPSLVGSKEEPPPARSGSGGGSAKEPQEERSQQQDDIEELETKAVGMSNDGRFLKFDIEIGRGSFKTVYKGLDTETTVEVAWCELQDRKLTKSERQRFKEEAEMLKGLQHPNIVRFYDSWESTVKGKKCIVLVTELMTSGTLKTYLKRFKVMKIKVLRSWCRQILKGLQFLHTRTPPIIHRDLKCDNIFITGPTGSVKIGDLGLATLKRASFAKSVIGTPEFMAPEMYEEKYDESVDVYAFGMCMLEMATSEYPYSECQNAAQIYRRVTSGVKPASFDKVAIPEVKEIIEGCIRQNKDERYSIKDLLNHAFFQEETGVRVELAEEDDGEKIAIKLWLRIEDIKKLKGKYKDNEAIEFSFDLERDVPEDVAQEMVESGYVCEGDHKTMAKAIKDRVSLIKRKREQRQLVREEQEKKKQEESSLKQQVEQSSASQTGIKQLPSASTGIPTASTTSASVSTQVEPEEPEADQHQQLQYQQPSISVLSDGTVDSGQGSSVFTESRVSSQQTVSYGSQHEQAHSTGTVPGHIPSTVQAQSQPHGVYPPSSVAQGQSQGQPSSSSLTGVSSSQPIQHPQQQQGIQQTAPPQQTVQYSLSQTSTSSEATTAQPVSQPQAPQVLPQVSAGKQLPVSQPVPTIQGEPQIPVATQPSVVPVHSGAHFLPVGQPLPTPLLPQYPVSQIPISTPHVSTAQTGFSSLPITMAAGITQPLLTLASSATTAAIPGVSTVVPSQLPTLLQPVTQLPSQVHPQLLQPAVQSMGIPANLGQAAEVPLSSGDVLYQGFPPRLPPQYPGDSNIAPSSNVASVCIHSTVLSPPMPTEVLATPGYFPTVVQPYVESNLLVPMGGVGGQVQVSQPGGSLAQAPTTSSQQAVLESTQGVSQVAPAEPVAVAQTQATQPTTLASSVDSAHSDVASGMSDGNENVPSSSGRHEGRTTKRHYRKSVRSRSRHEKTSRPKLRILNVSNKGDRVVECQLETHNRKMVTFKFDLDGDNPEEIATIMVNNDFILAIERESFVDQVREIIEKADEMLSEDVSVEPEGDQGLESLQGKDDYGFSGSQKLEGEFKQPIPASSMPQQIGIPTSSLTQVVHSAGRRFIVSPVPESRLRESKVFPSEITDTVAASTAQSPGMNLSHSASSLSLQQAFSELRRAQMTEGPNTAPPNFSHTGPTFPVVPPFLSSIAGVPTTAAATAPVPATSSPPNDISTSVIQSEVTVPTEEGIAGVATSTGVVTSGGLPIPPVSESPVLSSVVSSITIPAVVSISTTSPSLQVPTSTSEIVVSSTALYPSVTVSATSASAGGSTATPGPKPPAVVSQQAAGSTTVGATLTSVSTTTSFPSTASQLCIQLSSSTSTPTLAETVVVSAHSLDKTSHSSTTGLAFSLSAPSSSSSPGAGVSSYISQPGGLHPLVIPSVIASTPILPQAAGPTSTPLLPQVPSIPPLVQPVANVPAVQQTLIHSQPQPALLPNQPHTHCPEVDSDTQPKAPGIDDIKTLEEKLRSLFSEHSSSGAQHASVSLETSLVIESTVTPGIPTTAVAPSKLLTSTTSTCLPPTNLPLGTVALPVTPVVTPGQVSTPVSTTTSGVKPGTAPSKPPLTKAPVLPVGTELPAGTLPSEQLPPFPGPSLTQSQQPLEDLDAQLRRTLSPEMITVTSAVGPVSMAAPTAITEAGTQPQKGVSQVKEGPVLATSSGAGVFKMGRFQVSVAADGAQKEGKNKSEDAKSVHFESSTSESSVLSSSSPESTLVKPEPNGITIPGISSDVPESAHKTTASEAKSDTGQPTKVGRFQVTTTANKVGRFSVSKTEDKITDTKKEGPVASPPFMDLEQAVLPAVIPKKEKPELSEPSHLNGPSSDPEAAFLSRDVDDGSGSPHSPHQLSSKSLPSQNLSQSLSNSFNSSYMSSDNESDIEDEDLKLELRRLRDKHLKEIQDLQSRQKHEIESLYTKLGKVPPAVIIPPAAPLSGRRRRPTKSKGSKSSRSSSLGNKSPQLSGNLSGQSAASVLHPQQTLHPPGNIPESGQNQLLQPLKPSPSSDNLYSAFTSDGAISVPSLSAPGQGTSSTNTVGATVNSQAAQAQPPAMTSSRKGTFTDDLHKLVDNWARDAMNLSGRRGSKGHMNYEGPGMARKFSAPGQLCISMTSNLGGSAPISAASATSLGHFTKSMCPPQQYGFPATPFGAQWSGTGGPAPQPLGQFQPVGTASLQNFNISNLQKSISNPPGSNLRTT
Chain of Homeodomain-interacting protein kinase 1 (Homo sapiens) (Q86Z02 whole entry, looked up): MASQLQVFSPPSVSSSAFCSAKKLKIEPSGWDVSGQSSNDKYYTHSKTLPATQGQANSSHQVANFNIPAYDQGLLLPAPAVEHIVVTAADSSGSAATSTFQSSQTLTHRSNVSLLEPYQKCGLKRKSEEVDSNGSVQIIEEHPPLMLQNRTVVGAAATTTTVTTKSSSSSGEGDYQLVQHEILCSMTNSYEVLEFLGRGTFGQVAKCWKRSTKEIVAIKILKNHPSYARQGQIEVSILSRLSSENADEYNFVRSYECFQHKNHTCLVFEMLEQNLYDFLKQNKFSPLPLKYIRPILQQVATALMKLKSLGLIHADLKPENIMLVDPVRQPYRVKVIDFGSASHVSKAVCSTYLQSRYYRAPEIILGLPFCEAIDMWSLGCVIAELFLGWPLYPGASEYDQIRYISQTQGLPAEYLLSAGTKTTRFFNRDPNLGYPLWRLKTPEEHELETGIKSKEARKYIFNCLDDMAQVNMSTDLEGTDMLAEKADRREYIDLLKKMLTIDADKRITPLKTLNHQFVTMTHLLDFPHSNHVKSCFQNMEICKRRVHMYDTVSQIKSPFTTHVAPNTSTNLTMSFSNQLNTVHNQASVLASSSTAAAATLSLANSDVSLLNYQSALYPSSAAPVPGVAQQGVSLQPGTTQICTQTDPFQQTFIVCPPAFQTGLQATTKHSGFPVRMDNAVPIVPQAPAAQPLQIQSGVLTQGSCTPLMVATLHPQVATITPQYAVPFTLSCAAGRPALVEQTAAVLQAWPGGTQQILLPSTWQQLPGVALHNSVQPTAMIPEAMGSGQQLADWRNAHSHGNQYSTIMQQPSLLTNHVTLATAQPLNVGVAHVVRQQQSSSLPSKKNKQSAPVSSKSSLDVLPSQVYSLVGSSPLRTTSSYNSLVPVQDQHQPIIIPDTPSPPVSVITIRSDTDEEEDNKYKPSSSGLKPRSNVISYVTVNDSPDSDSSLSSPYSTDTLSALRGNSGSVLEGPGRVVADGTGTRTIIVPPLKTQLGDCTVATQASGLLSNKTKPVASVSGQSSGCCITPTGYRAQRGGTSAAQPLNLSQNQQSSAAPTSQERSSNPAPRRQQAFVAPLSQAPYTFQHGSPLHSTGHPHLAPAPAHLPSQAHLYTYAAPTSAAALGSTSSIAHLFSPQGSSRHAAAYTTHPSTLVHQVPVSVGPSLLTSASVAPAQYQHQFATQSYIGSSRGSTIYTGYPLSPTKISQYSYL
Chain of Cyclin-dependent kinase 15 (Homo sapiens) (Q96Q40 whole entry): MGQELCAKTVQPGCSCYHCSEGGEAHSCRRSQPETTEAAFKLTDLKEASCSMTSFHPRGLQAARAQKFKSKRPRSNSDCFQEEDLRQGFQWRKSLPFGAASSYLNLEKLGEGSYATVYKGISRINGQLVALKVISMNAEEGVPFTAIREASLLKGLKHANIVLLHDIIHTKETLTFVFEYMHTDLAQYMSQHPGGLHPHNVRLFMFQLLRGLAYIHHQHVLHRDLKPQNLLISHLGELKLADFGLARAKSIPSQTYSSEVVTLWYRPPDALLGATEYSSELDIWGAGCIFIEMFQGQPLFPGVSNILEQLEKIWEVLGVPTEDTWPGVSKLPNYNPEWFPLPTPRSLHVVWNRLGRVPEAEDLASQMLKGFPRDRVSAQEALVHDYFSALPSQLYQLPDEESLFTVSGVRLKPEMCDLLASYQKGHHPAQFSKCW

For `COc1cc2ncnc(N[C@H](C)c3cccc4ccccc34)c2cc1OC`, the Activity in [1] amounted to 83%; in assay [2], 75%; in [3] it was 83%; in [4], 100%; in [5] it was 88%; in assay [6] it was 87%. Also, the Activity turned out to be 100% in assay [7]; 100% in assay [8]; 78% in [9]; 100% in [10]; 83% in assay [11].
